Structures can show the parent of a compound that is named as a salt. Where two headings read alike, the source gives them in different places.
Legend:
[1] = target: T1, constitutive NO synthase (cNOS) (Rattus norvegicus, UniProt P29476); assay: Activity to inhibit constitutive NO synthase (cNOS) derived from rat cerebellum; conversion of [3H]-L-arginine to [3H]-L-citrulline; type: biochemical
T1 construct: cNOS was extracted from a rat cerebellum; from tissue; host or cells: rat cerebellum
Protocol: Activity to inhibit constitutive NO synthase (cNOS) derived from rat cerebellum
The inhibition activity was tested according to a method of P. A. Bush et al. (Biochem, Biophys, Res. Commun., 185, 960-966 (1992)), using [³H]-L-arginine as a substrate and taking the conversion of [³H]-L-arginine to [³H]-L-citrulline as an index of the enzyme activity.
The test was conducted as follows: First, cNOS was extracted from a rat cerebellum with a 50 mM Tris-HCl buffer solution (pH 7.4) which contains 0.1 mM EDTA (ethylenediamine tetraacetate), 0.1 mM EGTA (ethyleneglycol bis(β-aminoethyl ether)-tetraacetate), 0.5 mM DTT (dithiothreitol), 1 µM PMSF (phenylmethylsulfonyl fluoride), 1 µM bestatin A, and 1 µM leupeptin. To the cNOS thus extracted, a 50 mM Tris-HCl buffer solution (pH 7.4) containing 10 µM L-arginine, 10 µM NADPH, 2 mM calcium chloride and calmoduline (0.1 µg), together with a test compound and [³H]-L-arginine were added. The mixture was incubated for 10 minutes at 25°C. The reaction was terminated by adding 20 mM sodium acetate buffer solution (pH 5.5) containing 1 mM L-citrulline, 2 mM EDTA, and 0.2 mM EGTA. The reaction solution was passed through a cation-exchange resin. This eluate was combined with another eluate which was obtained thereafter by eluting with water. To the combined eluate, a liquid scintillation cocktail was further added and its radioactivity (A) was measured. At the same time, the radioactivity (B) with respect to the case where the test compound was not added and the radioactivity (C) with respect to the case where an enzyme fraction was not added, were respectively measured. Then, the rate of cNOS inhibition was calculated in accordance with the following equation. The concentration (IC₅₀), at which the test compound can inhibit 50 % of the enzyme activity, were also calculated. Inhibition rate (%) = {1 - (A - C/B - C)} × 100 [formula]

[2] = target: T2, inducible NO synthase (iNOS) (Rattus norvegicus, UniProt Q06518); assay: Activity to inhibit inducible NO synthase (iNOS) derived from rat macrophages; conversion of [3H]-L-arginine to [3H]-L-citrulline; type: biochemical; design: iNOS was extracted from the macrophages which have been treated with lipopolysaccharide and interferon-γ; endogenous in cells; host or cells: rat peritoneal macrophages treated with lipopolysaccharide and interferon-γ
Protocol: Activity to inhibit inducible NO synthase (iNOS) derived from rat macrophages
According to partly modified method of Y. Yui et al.(J. Biol. Chem., 266 (19), 12544-12547 (1991)), an iNOS fraction was prepared by applying lipopolysaccharide and interferon-γ to peritoneal macrophages. Thereafter, its enzymatic activity was measured based on the conversion of [³H]-L-arginine to [³H]-L-citrulline, in the same manner as in the case of cNOS.
To the iNOS thus extracted, a 50 mM Tris-HCl buffer solution (pH 7.4) containing 150 µM L-arginine, 5 mM NADPH, 5 mM DTT, 0.5 mM 5,6,7,8-tetrahydro-L-biopterin and 5 µM FAD was added together with a test compound and [³H]-L-arginine. The mixture was incubated for 30 minutes at 37°C. Thereafter, the reaction was terminated by adding a 25 mM sodium acetate buffer solution (pH 5.5) containing 1.25 mM L-citrulline, 2.5 mM EDTA and 0.25 mM EGTA. The reaction solution was passed through a cation-exchange resin. The obtained eluate was combined with the additional eluate obtained thereafter by eluting with water, and the radioactivity of the combined eluate was measured. The inhibition rate of the test compound on iNOS was calculated in the same manner as in Test 1. The concentration (IC₅₀) of the test compound required for inhibiting 50 % of the enzyme activity, were calculated.

neuronal NOS (nNOS) = target: T3, neuronal NOS (nNOS) (Rattus norvegicus, UniProt P29476); assay: Effect on rat cerebral ischemia model by inhibition of nNOS: reperfusion model; type: in vivo; details: 10 minutes before occlusion, immediately before and 3 hours after reperfusion, infarct area after 48 hours
T3 construct: from tissue; host or cells: living rat (brain)
Excerpt: Effect on rat cerebral ischemia model by inhibition of neuronal NOS (nNOS): reperfusion model
A rat (weight: 300 g) was fasted overnight and a middle cerebral artery of the rat was occluded and then reperfused to prepare a cerebral ischemia model, according to the method of Koizumi et al. (Jpn. J. Stroke, 8, 1-8 (1986)). More specifically, a rat breathing naturally was immobilized under anesthesia with a laughing gas - oxygen mixed gas and halothane, and then, underwent cervical median dissection. A silicon-coated nylon thread was inserted into an internal carotid artery from a branched portion at which a right external carotid artery and the internal carotid artery is divided, thereby blocking the middle cerebral artery for 1.5 hours. Thereafter, the occluding of the middle cerebral artery was reperfused by removing a thread. After 48 hours, 6 coronal sections were prepared and stained by means of a triphenyltetrazolium chloride method. Non-stained portions were determined as infarct area. The test compound was intravenously injected 10 minutes before the occlusion of middle cerebral artery, immediately before, and 3 hours after reperfusion. The inhibitory effect of each compound was determined.

[3] = target: T4, endothelium nitric oxide synthase (eNOS) (Rattus norvegicus, UniProt Q62600); assay: Blood pressure elevating activity in rat by inhibition of eNOS; type: in vivo; details: dose to elevate mean blood pressure by 25 mmHg; anesthetized rat, administered via femoral vein
T4 construct: from tissue; host or cells: living anesthetized rat
Protocol: Blood pressure elevating activity in rat by inhibition of endothelium nitric oxide synthase (eNOS) A rat was anesthetized with by peritoneal injection of sodium barbital (300 mg/kg) and catheters were inserted into a femoral artery and a femoral vein. Blood pressure was measured through the catheter inserted in the femoral artery and a test compound was administered through the catheter inserted in the femoral vein. […]

[4] = target: T2, inducible NO synthase (iNOS); assay: Effect on rat-paw carrageenin edema model by inhibition of iNOS; type: in vivo; details: oral, 1 hour prior to carrageenin, paw volume 4 hours after induction; for ED50: rat, read-out: Suppression Effect (ED₅₀)
Protocol: Effect on rat-paw carrageenin edema model by inhibition of inducible NO synthase (iNOS)
To a rat's left leg, 1 % carrageenin solution was subcutaneously administered to induce a paw edema. 4 hours after the induction, paw volume was measured. A test compound was orally administered 1 hour prior to the carrageenin administration. The suppression effect of the test compound was determined.

[5] = cNOS extracted from rat cerebellum, 10 µM L-arginine, 10 minutes at 25°C, read-out: IC₅₀
[6] = iNOS from peritoneal macrophages treated with lipopolysaccharide and interferon-γ, 150 µM L-arginine, 30 minutes at 37°C, read-out: IC₅₀

Compound | IC50 [1, 5] [µM] | IC50 [2, 6] [µM] | IC50 [1] [µM] | IC50 [2] [µM] | further results
CCOC1CC(C)SC(N)=N1 (stereo not drawn) [Example 26, Bis(2-amino-4-ethoxy-5,6-dihydro-6-methyl-4H-1,3-thiazine) fumarate] |  |  | 0.08 | 0.09 | 
Br.COC[C@@H]1CCSC(N)=N1 [Example 30, (S)-2-amino-5,6-dihydro-4-methoxymethyl-4H-1,3-thiazine hydrobromide] | 0.03 | 0.02 |  |  | Inhibitory Effect (neuronal NOS (nNOS); dose 10 µg/kg intravenously): ○ (10); ED₂₅ [3]: 0.15 mg/kg
NC1=N[C@@H](Cc2ccccc2)CCS1 [Example 10, (S)-2-amino-4-benzyl-5,6-dihydro-4H-1,3-thiazine hydrobromide] |  |  | 0.03 | 0.6 | 
Br.CCC[C@@H]1CCSC(N)=N1 [Example 3, (R)-2-amino-5,6-dihydro-4-propyl-4H-1,3-thiazine hydrobromide] |  |  |  |  | Inhibitory Effect (neuronal NOS (nNOS); dose 10 µg/kg intravenously): ○ (10); Suppression Effect [4]: ○; ED50 [4]: 9 mg/kg; ED₂₅ [3]: 0.2 mg/kg
NC1=NC(OCCc2ccccc2)CCS1 (stereo not drawn) [Example 25, Bis(2-amino-5,6-dihydro-4-(2-phenyl)ethyloxy-4H-1,3-thiazine) fumarate] |  |  | 0.1 | 0.3 | 
CCCOC1CCSC(N)=N1 (stereo not drawn) [Example 19, 2-amino-5,6-dihydro-4-propyloxy-4H-1,3-thiazine hydrochloride] | 0.04 | 0.03 |  |  | 
CC1CC(OCc2ccccc2)N=C(N)S1 (stereo not drawn) [Example 27, Bis(2-amino-4-benzyloxy-5,6-dihydro-6-methyl-4H-1,3-thiazine), fumarate] |  |  | 0.4 | 0.4 | 
CCOC1CCSC(N)=N1 (stereo not drawn) [Example 21, Bis(2-amino-4-ethoxy-5,6-dihydro-4H-1,3-thiazine) fumarate] |  |  | 0.02 | 0.03 | Inhibitory Effect (neuronal NOS (nNOS); dose 3 µg/kg intravenously): ○ (3); Suppression Effect [4]: ○; ED50 [4]: 0.5 mg/kg; ED₂₅ [3]: 0.06 mg/kg
CC1CCCSC(N)=N1 (stereo not drawn) [Example 12, Bis(2-amino-4,5,6,7-tetrahydro-4-methyl-1,3-thiazepine) fumarate] |  |  | 0.1 | 0.07 | 
CC(C)C[C@@H]1CCSC(N)=N1 [Example 7, (R)-2-amino-5,6-dihydro-4-isobutyl-4H-1,3-thiazine hydrobromide] | 0.04 | 0.07 |  |  | 
CCC[C@@H]1CCCSC(N)=N1 [Example 13, (R)-2-amino-4,5,6,7-tetrahydro-4-propyl-1,3-thiazepine hydrobromide] | 0.3 |  |  |  | 
COC1CCSC(N)=N1 (stereo not drawn) [Example 18, Bis(2-amino-5,6-dihydro-4-methoxy-4H-1,3-thiazine) fumarate] |  |  | 0.02 | 0.01 | 
NC1=NC(O)CCS1 (stereo not drawn) [Example 17, 2-amino-5,6-dihydro-4-hydroxyl-4H-1,3-thiazine hydrochloride] | 0.02 | 0.05 |  |  | 
CC(C)C[C@H]1CCSC(N)=N1 [Example 8, (S)-2-amino-5,6-dihydro-4-isobutyl-4H-1,3-thiazine hydrobromide] | 0.08 | 0.07 |  |  | 
NC1=NCCS1 [Comparative Example 1, 2-aminothiazoline, reference compound] |  |  |  | 2 | 
NC1=NC(OCc2ccccc2)CCS1 (stereo not drawn) [Example 22, Bis(2-amino-4-benzyloxy-5,6-dihydro-4H-1,3-thiazine) fumarate] |  |  | 0.1 | 0.6 | 
NC1=N[C@H](Cc2ccccc2)CCS1 [Example 9, (R)-2-amino-4-benzyl-5,6-dihydro-4H-1,3-thiazine hydrobromide] |  |  | 0.2 |  | 
CC1CN=C(N)SC1 (stereo not drawn) [Example 28, 2-amino-5,6-dihyro-5-methyl-4H-1,3-thiazine hydrobromide] |  |  | 0.1 | 0.2 | 
(R)-2-amino-4-benzyl-4,5,6,7-tetrahydro-1,3-thiazepine hydrobromide [Example 15] | 0.6 |  |  |  | 

Second part, led by results:

IC50 [1, 5] [µM] | IC50 [2, 6] [µM] | Compound | IC50 [1] [µM] | IC50 [2] [µM] | further results
0.02 | 0.3 | CC(C)[C@@H]1CCSC(N)=N1 [Example 1, (S)-2-amino-5,6-dihydro-4-isopropyl-4H-1,3-thiazine hydrobromide] |  |  | 
0.03 | 0.04 | CCCC[C@@H]1CCSC(N)=N1 [Example 5, (R)-2-amino-4-butyl-5,6-dihydro-4H-1,3-thiazine hydrobromide] |  |  | 
0.03 | 0.02 | CCC[C@H]1CCSC(N)=N1 [Example 4, (S)-2-amino-5,6-dihydro-4-propyl-4H-1,3-thiazine hydrobromide] |  |  | 
0.03 | 0.03 | CC(C)OC1CCSC(N)=N1 (stereo not drawn) [Example 20, 2-amino-5,6-dihydro-4-isopropoxy-4H-1,3-thiazine fumarate] |  |  | 
0.1 | 0.2 | CC1(C)CCN=C(N)S1 [Example 29, 2-amino-5,6-dihydro-6,6-dimethyl-4H-1,3-thiazine hydrochloride] |  |  | 
0.2 | 0.5 | CC1(C)CN=C(N)SC1 [Example 16, 2-amino-5,6-dihydro-5,5-dimethyl-4H-1,3-thiazine hydrobromide] |  |  | 
0.03 | 0.07 | CCCC[C@H]1CCSC(N)=N1 [Example 6, (S)-2-amino-4-butyl-5,6-dihydro-4H-1,3-thiazine hydrobromide] |  |  | 
0.3 |  | CC(C)[C@H]1CCSC(N)=N1 [Example 2, (R)-2-amino-5,6-dihydro-4-isopropyl-4H-1,3-thiazine hydrobromide] |  |  | 
